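In this assay, cells in 96-well plates receive the compound at five concentrations for 48 hours. Endpoints are linearly interpolated between the surrounding concentrations. Definition used: TGI = concentration required for complete inhibition of growth.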
Columns and labels:
Test in all cases: DTP human tumour cell line panel, 48 h
U251 CNS = tested on: U251 CNS
MDA-MB-435 = tested on: MDA-MB-435
ACHN renal = tested on: ACHN renal
HS 578T breast = tested on: HS 578T breast
CAKI-1 renal = tested on: CAKI-1 renal
K-562 leukemia = tested on: K-562 leukemia
SK-MEL-28 melanoma = tested on: SK-MEL-28 melanoma
COLO 205 colon = tested on: COLO 205 colon
SNB-75 CNS = tested on: SNB-75 CNS
HT29 colon = tested on: HT29 colon
SK-MEL-2 melanoma = tested on: SK-MEL-2 melanoma
MDA-MB-231 breast = tested on: MDA-MB-231 breast
SK-MEL-5 melanoma = tested on: SK-MEL-5 melanoma
SR leukemia = tested on: SR leukemia

Row | SMILES | TGI (U251 CNS) | TGI (MDA-MB-435) | TGI (ACHN renal) | TGI (HS 578T breast) | TGI (CAKI-1 renal) | TGI (K-562 leukemia) | TGI (SK-MEL-28 melanoma) | TGI (COLO 205 colon) | TGI (SNB-75 CNS) | TGI (HT29 colon) | TGI (SK-MEL-2 melanoma) | TGI (MDA-MB-231 breast) | TGI (SK-MEL-5 melanoma) | TGI (SR leukemia)
1 | NC(=O)c1ccc(C(=O)Nc2ccc([As](=O)(O)O)cc2)cc1 | > 100 µM | > 100 µM | > 100 µM | > 100 µM | > 100 µM | > 100 µM | > 100 µM | > 100 µM | > 100 µM | > 100 µM | > 100 µM | > 100 µM | > 100 µM | –
2 | CC(=O)c1cccc(Nc2nc3ccccc3c3occc23)c1 | 55.9 µM | > 100 µM | 39.9 µM | – | > 100 µM | > 100 µM | > 100 µM | > 100 µM | 45.2 µM | > 100 µM | – | 56.4 µM | 48.6 µM | > 100 µM
3 | O=C1N(Cl)C(=O)C(c2ccc(Cl)cc2)(c2ccc(Cl)cc2)N1Cl | > 100 µM | – | > 100 µM | – | > 100 µM | > 100 µM | > 100 µM | > 100 µM | > 100 µM | > 100 µM | > 100 µM | – | > 100 µM | > 100 µM
4 | C=CC[C@H]1O[Si](C(C)(C)C)(C(C)(C)C)[C@H](C)[C@H]1C | > 100 µM | > 100 µM | > 100 µM | – | > 100 µM | > 100 µM | > 100 µM | > 100 µM | > 100 µM | > 100 µM | > 100 µM | > 100 µM | > 100 µM | > 100 µM
5 | S=C1NCCN1 | > 100 µM | – | > 100 µM | – | > 100 µM | > 100 µM | > 100 µM | > 100 µM | > 100 µM | > 100 µM | > 100 µM | – | > 100 µM | > 100 µM
6 | CC1=C(C(=O)OCCO[N+](=O)[O-])C(c2cccc([N+](=O)[O-])c2)C(C(=O)OC(C)C)=C(C)N1 (configuration not stated) | 28.7 µM | 30.9 µM | > 100 µM | 33.2 µM | 95.7 µM | > 100 µM | 28.1 µM | 24.4 µM | – | 29.2 µM | 28 µM | 26.1 µM | 26.1 µM | > 100 µM
7 | C[n+]1c2ccccc2c(NCC(=O)O)c2ccccc21 | > 100 µM | – | > 100 µM | – | > 100 µM | > 100 µM | – | > 100 µM | > 100 µM | > 100 µM | > 100 µM | – | > 100 µM | > 100 µM
8 | CCCN(CCC)CCc1ccc(OC2=CCN(C)CC2)cc1 | > 100 µM | > 100 µM | > 100 µM | > 100 µM | > 100 µM | > 100 µM | 91.7 µM | > 100 µM | – | 46.4 µM | > 100 µM | > 100 µM | > 100 µM | 81.7 µM
9 | CC(=O)Nc1oc(C)c(C)c1S(=O)(=O)c1ccc(Cl)cc1 | > 100 µM | > 100 µM | > 100 µM | 93.6 µM | – | > 100 µM | > 100 µM | > 100 µM | > 100 µM | > 100 µM | 85.6 µM | – | 76.6 µM | > 100 µM
10 | COc1cc2c(c(OC)c1O)-c1ccc(SC)c(=O)cc1C(NC(C)=O)CC2 (configuration not stated) | > 5.55 µM | – | > 100 µM | – | > 100 µM | > 100 µM | > 100 µM | 0.0209 µM | – | > 100 µM | > 5.54 µM | – | 0.0361 µM | > 100 µM
11 | COc1ccc2c(c1)CC[C@@H]1[C@@H]2CC[C@]2(C)C(=O)/C(=C/c3ccc(N(C)C)cc3)C[C@@H]12 | > 100 µM | > 100 µM | > 100 µM | – | 71.7 µM | – | – | > 100 µM | 52.3 µM | – | 84.6 µM | > 100 µM | > 100 µM | –
12 | O=C1NC(N/N=C/c2ccccc2)=N/C1=C\c1ccco1 | 68.4 µM | > 100 µM | 55.4 µM | 78.3 µM | > 100 µM | – | > 100 µM | > 100 µM | > 100 µM | > 100 µM | > 100 µM | > 100 µM | > 100 µM | –
13 | N#Cc1cccc2c1Sc1ccccc1N2 | > 100 µM | > 100 µM | > 100 µM | – | > 100 µM | > 100 µM | – | 60.2 µM | 3.15 µM | > 100 µM | – | > 100 µM | 1.72 µM | > 100 µM
14 | COc1ccc(/C=c2/sc3n(c2=O)C(c2ccccc2)C2(O)CCCCC2N=3)cc1 (configuration not stated) | > 12.5 µM | > 12.5 µM | > 12.5 µM | – | > 12.5 µM | > 12.5 µM | > 12.5 µM | – | > 12.5 µM | > 12.5 µM | > 12.5 µM | – | > 12.5 µM | > 12.5 µM
15 | S=c1nc2sc3c(c2c(Nc2ccc(Cl)cc2)[nH]1)CCCC3 | > 100 µM | > 100 µM | > 100 µM | > 100 µM | > 100 µM | > 100 µM | > 100 µM | > 100 µM | – | > 100 µM | > 100 µM | > 100 µM | > 100 µM | > 100 µM
16 | CC1=NN(c2nc(N)nc(/C(C#N)=C/c3ccccc3O)n2)C(C)(C)C1 | 41.3 µM | 32.9 µM | 34.5 µM | 35.4 µM | 36.9 µM | > 100 µM | 30.8 µM | 31.5 µM | – | 42.6 µM | 39.6 µM | 40.7 µM | 28.8 µM | > 100 µM
17 | COc1cc2c(cc1OC)[C@@H]1[C@H](C#N)C(=O)C(C)(C)N1CC2 | > 100 µM | > 100 µM | > 100 µM | > 100 µM | > 100 µM | > 100 µM | > 100 µM | > 100 µM | – | > 100 µM | – | > 100 µM | > 100 µM | > 100 µM
18 | CN(CC(=O)N1CC(CCl)c2ccc([N+](=O)[O-])cc21)CC(=O)N1CC(CCl)c2ccc([N+](=O)[O-])cc21 (configuration not stated) | > 100 µM | > 100 µM | > 100 µM | > 100 µM | > 100 µM | > 100 µM | > 100 µM | > 100 µM | > 100 µM | > 100 µM | > 100 µM | > 100 µM | > 100 µM | –
